# Source: patent US6423335B1, “Modified milk powder composition” (priority 1999, dated 2002)
# Legend:
# Type in all cases: in vivo, rats (the Donryu strain)
# peritoneal macrophage [1] = assay: Production of TNF-α by peritoneal macrophage as an index of immune response (Example 2); settings: two weeks
# Excerpt: (§1) Then, using commercial modified milk powder (milk serum protein, soybean oil, lactose, and various vitamins and minerals were mixed; level of proteins was from 12 to 13% by weight) as a control, glutamine ([…] became 2, 5, 8, or 40%), and each diet was offered (free ingestion) for two weeks. Upon each rat, body weight, weight of tissues, blood urea nitrogen (BUN), the level of leukocytes, the level of erythrocytes, hematocrit, the level of platelets, and production of TNF-α by peritoneal macrophage as an index of immune response were measured.
# [2] = Commercial modified milk powder feeding in rats: body weight, weight of tissues, BUN, blood profile (Example 2); settings: two weeks
# Excerpt: as §1
# peritoneal macrophage [3] = assay: Production of TNF-α by peritoneal macrophage as an index of immune response (Example 1); settings: 5% (w/w) in 3% protein diet, three weeks; versus suppression in 3% protein diet group
# Excerpt: (§2) Four-week-age male rats (the Donryu strain) were fed 20% protein diet for one week. Then, glutamine (Gln) and glutamic acid (Glu) each were mixed into 3% protein diet at the level of 5% (w/w) and offered to the rats for three weeks. Also, a 20% protein diet group and a 3% protein diet group were set as controls. Upon each rat, body weight, weight of tissues, blood urea nitrogen (BUN), the level of leukocytes, the level of erythrocytes, hematocrit, the level of platelets, and production of TNF-α by peritoneal macrophage as an index of immune response were determined.
# [4] = Low protein diet feeding in rats: body weight, weight of tissues, BUN, blood profile (Example 1); settings: for efficiency of protein utilization of feed / feed efficiency: versus 3% protein diet group; for level of platelets: versus suppression in 3% protein diet group
# Excerpt: as §2
# [5] = 0.65% Gln in modified milk powder
# [6] = 1.5% Gln group, modified milk powder
# [7] = 0.3% Gln in modified milk powder
# [8] = 5% (w/w) in 3% protein diet, three weeks
# [9] = male rats, 5% (w/w) in 3% protein diet, three weeks
smiles,measurement,setting,value
"NC(=O)CC[C@H](N)C(=O)O [Gln, glutamine]",production of TNF-α by peritoneal macrophage versus control group,peritoneal macrophage [1]; [5],higher than that at the control group
same,production of TNF-α by peritoneal macrophage as compared with the control group,peritoneal macrophage [1]; [6],there were observed differences
same,Blood urea nitrogen,[2]; [7],20.5 mg/dL
same,Body weight at the end of experiment,[2]; [7],233.1
same,body weight and any of the other indexes versus control group (Gln 0%),[2]; [7],no difference
same,Blood urea nitrogen,[2]; [5],22.1 mg/dL
same,Body weight at the end of experiment,[2]; [5],238.2
same,body weight versus control group,[2]; [5],a slight difference
same,Blood urea nitrogen,[2]; 1% Gln in modified milk powder,23.4 mg/dL
same,Body weight at the end of experiment,[2]; 1% Gln in modified milk powder,241.7
same,body weight as compared with the control group,[2]; [6],there were observed differences
same,level of platelets as compared with the control group,[2]; [6],there were observed differences
same,Blood urea nitrogen,[2]; 5% Gln in modified milk powder,24.1 mg/dL
same,Body weight at the end of experiment,[2]; 5% Gln in modified milk powder,245.8
same,production of TNF-α by peritoneal macrophage,peritoneal macrophage [3],improvement was observed
same,remarkable decrease of body weight on low protein diet,"[4]; 5% (w/w) in 3% protein diet, three weeks, compared with 3% protein diet group",this phenomenon was observed
same,efficiency of protein utilization of feed,[4]; [8],higher than those in the 3% protein diet group
same,feed efficiency,[4]; [8],higher than those in the 3% protein diet group
same,level of platelets,[4]; [8],improvement was observed
same,Body weight at the end of experiment,[4]; [9],200.2 ± 3.1
same,Blood urea nitrogen,"[4]; rat, in vivo",18.9 ± 2.1 mg/dL
"N[C@@H](CCC(=O)O)C(=O)O [Glu, glutamic acid]",production of TNF-α by peritoneal macrophage,peritoneal macrophage [3],no improvement
same,efficiency of protein utilization of feed,[4]; [8],this beneficial phenomenon was not observed
same,feed efficiency,[4]; [8],this beneficial phenomenon was not observed
same,level of platelets,[4]; [8],no improvement
same,Blood urea nitrogen,[4]; [9],18.8 ± 2.9 mg/dL
same,Body weight at the end of experiment,[4]; [9],180.5 ± 3.8
